{
  "source": "patent US20260000671A1",
  "about": "“CONCENTRATED SOLUTIONS COMPRISING 5,10-METHYLENE-(6R)-TETRAHYDROFOLIC ACID” (Merck Patent GMBH, priority 2022, published 2026)",
  "origin": "cited, not measured here",
  "data": [
    {"smiles": "Nc1nc2c(c(=O)[nH]1)N1CN(c3ccc(C(=O)N[C@@H](CCC(=O)O)C(=O)O)cc3)C[C@H]1CN2", "note": "[5,10-methylene-(6R,S)-tetrahydrofolic acid]", "values": [
      {"measurement": "purity 24 hours following dissolution in water", "setting": "24 hours following dissolution in water, % normalized purity", "result": "44.9 % of the starting purity"},
      {"measurement": "stability profile in words", "setting": "following dissolution in water, FIG. 1", "result": "degraded rapidly over time"},
      {"measurement": "purity after 7 hours", "setting": "re-constituted lyophilizate, after 7 hours", "result": 84, "unit": "%"},
      {"measurement": "purity loss per hour (degradation rate, slope of best-fit line)", "setting": "re-constituted lyophilizate, linear regression of stability profile", "result": 2.3, "unit": "% purity per hour"}
    ]}
  ]
}
